From US5221606A, “Reagent and kit for enzyme assay comprising a substrate consonant with given enzyme to be assayed” (King's College London, priority 1987, dated 1993)
Where a name gives a salt, the structure may show the parent alone.

Columns and labels:
E. Coli β-galactosidase = E. Coli β-galactosidase (Escherichia coli, UniProt P00722); assay: substrate test with β-galactosidase; type: biochemical
[1] = solubility in water or aqueous buffer
alkaline phosphatase = assay: substrate test with alkaline phosphatase; type: biochemical; settings: for Km: phosphatase
[2] = E. coli β-galactosidase, unit inferred

E. Coli β-galactosidase, sequence (P00722 2-1024): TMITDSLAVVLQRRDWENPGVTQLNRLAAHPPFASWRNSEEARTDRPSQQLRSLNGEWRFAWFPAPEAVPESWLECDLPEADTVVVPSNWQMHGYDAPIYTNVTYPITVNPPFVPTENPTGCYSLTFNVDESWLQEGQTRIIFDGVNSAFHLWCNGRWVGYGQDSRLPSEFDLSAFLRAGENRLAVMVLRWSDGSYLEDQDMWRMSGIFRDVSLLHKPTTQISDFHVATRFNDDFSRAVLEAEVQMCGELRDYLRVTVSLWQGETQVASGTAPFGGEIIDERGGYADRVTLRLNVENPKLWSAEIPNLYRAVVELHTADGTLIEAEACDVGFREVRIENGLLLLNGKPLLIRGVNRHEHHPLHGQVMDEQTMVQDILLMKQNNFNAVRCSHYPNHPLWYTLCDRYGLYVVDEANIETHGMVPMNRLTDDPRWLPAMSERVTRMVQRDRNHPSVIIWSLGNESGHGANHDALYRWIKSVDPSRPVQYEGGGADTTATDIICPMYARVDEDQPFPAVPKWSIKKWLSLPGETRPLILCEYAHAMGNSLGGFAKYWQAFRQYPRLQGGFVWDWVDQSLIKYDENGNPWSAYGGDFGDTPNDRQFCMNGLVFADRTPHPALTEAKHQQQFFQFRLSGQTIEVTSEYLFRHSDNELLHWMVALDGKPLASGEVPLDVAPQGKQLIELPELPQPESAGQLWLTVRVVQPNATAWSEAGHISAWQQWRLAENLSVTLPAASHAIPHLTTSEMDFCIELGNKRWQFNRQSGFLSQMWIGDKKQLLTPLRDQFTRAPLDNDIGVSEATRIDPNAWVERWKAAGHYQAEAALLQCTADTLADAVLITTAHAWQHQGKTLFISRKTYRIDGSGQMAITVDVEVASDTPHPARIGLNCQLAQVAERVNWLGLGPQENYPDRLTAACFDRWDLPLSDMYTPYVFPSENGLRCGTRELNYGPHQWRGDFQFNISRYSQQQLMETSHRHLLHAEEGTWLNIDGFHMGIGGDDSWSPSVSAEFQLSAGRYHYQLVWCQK

## COc1cc(C=C2SC(=S)N(CC(=O)O)C2=O)ccc1O[C@@H]1O[C@H](CO)[C@H](O)[C@H](O)[C@H]1O [4c, Ammonium 5-[4-(β-D-galactopyranosyloxy)-3-methoxyphenyl-methylene]-2-thioxothiazolidin-4-one-3-ethanoate]
E. Coli β-galactosidase
  quality as substrate for E. Coli β-galactosidase: very good substrate
[1]
  solubility in water: easily soluble in water

## COc1cc(C=C2SC(=S)N(C)C2=O)ccc1OP(=O)(O)O [9F, 5-(4-Phosphoroyloxy-3-methoxyphenylmethylene)-2-thioxo-3-methylthiazolidine-4-one]
Alkaline phosphatase
  quality as substrate for / hydrolysis by alkaline phosphatase: hydrolysed readily
[1]
  solubility in water: very soluble in water

## COc1cc(N2C(=O)C(=Cc3cc(OC)c(OP(=O)(O)O)c(OC)c3)SC2=S)cc(OC)c1OC [15f, 2-Thioxo-3-(3,4,5-trimethoxyphenyl)-5-(3,5-dimethoxy-4-phosphoroyloxyphenylmethylene)-thiazolidin-4-one]
Alkaline phosphatase
  quality as substrate for / hydrolysis by alkaline phosphatase: hydrolysed by alkaline phosphatase
[1]; alkaline buffers (pH 8 etc.)
  solubility in alkaline buffers: moderately soluble

## COc1cc(C=C2SC(=S)N(C)C2=O)cc(OC)c1OP(=O)(O)O [16f, 5-(4-Phosphoroyloxy-3,5-dimethoxyphenylmethylene)-2-thioxo-3-methylthiazolidine-4-one]
Alkaline phosphatase
  Km: 330 µM

## COc1cc(/C=C/c2cc[n+](C)cc2)ccc1O[C@@H]1O[C@H](CO)[C@H](O)[C@H](O)[C@H]1O [19c]
E. Coli β-galactosidase
  quality as substrate for E. Coli β-galactosidase: substrate
[1]
  solubility in water: fair solubility

## COc1cc(/C=C/c2ccc3ccccc3[n+]2C)ccc1O[C@@H]1O[C@H](CO)[C@H](O)[C@H](O)[C@H]1O [21c, 2-{2-[4-(β-D-Galactopyranosyloxy)-3-methoxyphenyl]-vinyl}-1-methylquinolinium iodide]
E. Coli β-galactosidase
  quality as substrate for E. Coli β-galactosidase: excellent substrate
E. Coli β-galactosidase; [2]
  Km: ~200 µM
E. Coli β-galactosidase; at a concentration of 0.5 mM
  % of vmax achieved: 90%
[1]
  solubility in water: very good water solubility

## COc1cc(/C=C/c2ccc3ccccc3[n+]2C)cc(OC)c1O[C@@H]1O[C@H](CO)[C@H](O)[C@H](O)[C@H]1O [22c, 2-{2-[4-(β-D-Galactopyranosyloxy)-3,5-dimethoxyphenyl]-vinyl}-1-methylquinolinium iodide]
E. Coli β-galactosidase
  quality as substrate for E. Coli β-galactosidase: good a substrate
[1]
  solubility in water: easily soluble in water

## COc1cc(/C=C/c2ccc3ccccc3[n+]2C)cc(OC)c1OP(=O)(O)O [22f, 2-[2-(4-phosphoroyloxy-3,5-dimethoxyphenyl)-vinyl]-1-methylquinolinium iodide]
Alkaline phosphatase
  quality as substrate for / hydrolysis by alkaline phosphatase: good substrate
  Km: 680 µM
Alkaline phosphatase; at a concentration of 0.5 mM
  % of vmax achieved: 42%
[1]
  solubility in water: very soluble in water

## COc1cc(/C=C/c2cc[n+](C)c3ccccc23)ccc1O[C@@H]1O[C@H](CO)[C@H](O)[C@H](O)[C@H]1O [23c, 4-{2-[4-(β-D-Galactopyranosyloxy)-3-methoxyphenyl]-vinyl}-1-methylquinolinium iodide]
E. Coli β-galactosidase
  quality as substrate for E. Coli β-galactosidase: excellent substrate
E. Coli β-galactosidase; [2]
  Km: 62 µM
E. Coli β-galactosidase; at a concentration of 0.5 mM
  % of vmax achieved: 95%
E. Coli β-galactosidase; at concentrations higher than 0.5 mM
  substrate inhibition: slight substrate inhibition
[1]
  solubility in water: good water solubility

## COc1cc(/C=C/c2cc[n+](C)c3ccccc23)cc(OC)c1O[C@@H]1O[C@H](CO)[C@H](O)[C@H](O)[C@H]1O [24c, 4-{2-[4-(β-D-Galactopyranosyloxy)-3,5-dimethoxyphenyl]-vinyl}-1-methylquinolinium iodide]
E. Coli β-galactosidase
  quality as substrate for E. Coli β-galactosidase: good a substrate
[1]
  solubility in water: easily soluble in water

## COc1cc(/C=C/c2sc3ccccc3[n+]2C)ccc1O[C@@H]1O[C@H](CO)[C@H](O)[C@H](O)[C@H]1O [26c, 2-{2-[4-(β-D-Galactopyranosyloxy)-3-methoxyphenyl]-vinyl}-3-methylbenzothiazolium tosylate]
E. Coli β-galactosidase
  concentration above which substrate inhibition starts to show: above 0.7 mM
  pH optimum: 6.5
  quality as substrate for E. Coli β-galactosidase: reacted to give an intense violet-red solution
E. Coli β-galactosidase; at a concentration of 1 mM
  % of vmax achieved: 95%
E. Coli β-galactosidase; β-D-galactosidase from E. Coli
  Km: 230 µM
[1]
  solubility in water: very soluble in water
